Assays:
Assay type in all cases: functional
Escherichia coli [1] = experiment: Antibacterial activity against Escherichia coli W3110
Escherichia coli [2] = experiment: Antibacterial activity against Escherichia coli pTMV19 in presence of mevalonate
Escherichia coli [3] = experiment: Antibacterial activity against Escherichia coli pTMV19

SMILES	inhibition zone (IZ) (Escherichia coli [1])	inhibition zone (IZ) (Escherichia coli [2])	inhibition zone (IZ) (Escherichia coli [3])
CCCC(O)(P(=O)(O)O)P(=O)(O)O	0 mm	–	–
O=P(O)(O)CC(c1cccnc1)P(=O)(O)O (stereo not given)	0 mm	–	–
O=P(O)(O)C(NC1CCCC1)P(=O)(O)O [(CYCLOPENTYLAMINO)METHYLENEDIPHOSPHONIC ACID]	0 mm	–	–
Nc1ccc(CC(O)(P(=O)(O)O)P(=O)(O)O)cc1	0 mm	–	–
Cc1nc(NC(P(=O)(O)O)P(=O)(O)O)c(Br)cc1Br	0 mm	–	–
CCCCCCCc1ccc(NC(P(=O)(O)O)P(=O)(O)O)cc1	0 mm	0 mm	0 mm
CCCCCCCCCCCC(O)(P(=O)(O)O)P(=O)(O)O	0 mm	–	–
O=P(O)(O)C(N1CCCCCCC1)P(=O)(O)O [N-(HEPTAMETHYLENEIMINO)METHYLENEBISPHOSPHONIC ACID]	0 mm	–	–
CC(C)CCNC(P(=O)(O)O)P(=O)(O)O [(ISOPENTYLAMINO)METHYLENEDIPHOSPHONIC ACID]	0 mm	–	–
O=P(O)(O)C(Nc1cccc(Cc2ccccc2)c1)P(=O)(O)O	7 mm	0 mm	8 mm
O=P(O)(O)C(O)(Cc1c[nH]cn1)P(=O)(O)O	0 mm	0 mm	0 mm
CCCCCCCCCCCCCC(O)(P(=O)(O)O)P(=O)(O)O	0 mm	–	–
O=P(O)(O)C(Nc1cccc(Oc2ccccc2)c1)P(=O)(O)O	0 mm	–	–
O=P(O)(O)C(Nc1c(F)c(F)c(F)c(F)c1F)P(=O)(O)O	0 mm	–	–
NC[C@@H]1O[C@H](O[C@H]2[C@@H](O)[C@H](O[C@@H]3[C@@H](O)[C@H](N)C[C@H](N)[C@H]3O[C@H]3O[C@H](CN)[C@@H](O)[C@H](O)[C@H]3N)O[C@@H]2CO)[C@H](N)[C@@H](O)[C@@H]1O [FRAMYCETIN]	15 mm	12 mm	18 mm
NC[C@H]1O[C@H](O[C@H]2[C@H](O)[C@@H](O[C@H]3O[C@H](CO)[C@@H](O)[C@H](N)[C@H]3O)[C@H](N)C[C@@H]2N)[C@H](O)[C@@H](O)[C@@H]1O [KANAMYCIN]	21 mm	17 mm	22 mm
O=P(O)(O)C(Nc1cc(Cl)cc(Cl)c1)P(=O)(O)O [(3,5-DICHLOROPHENYLAMINO)METHYLENEDIPHOSPHONIC ACID]	0 mm	8 mm	10 mm
Cc1cccnc1NCC(P(=O)(O)O)S(=O)(=O)O (stereo not given)	0 mm	–	–
O=P(O)(O)C(Nc1ncc(Br)cc1Br)P(=O)(O)O	0 mm	–	–
CC1CCCCN1C(P(=O)(O)O)P(=O)(O)O (stereo not given)	0 mm	–	–
O=P(O)(O)C(Nc1cccnc1Cl)P(=O)(O)O	0 mm	–	–
Cc1ccnc(N(Cc2ccccc2)C(P(=O)(O)O)P(=O)(O)O)c1	0 mm	0 mm	0 mm

SMILES	inhibition zone (IZ) (Escherichia coli [1])	inhibition zone (IZ) (Escherichia coli [2])	inhibition zone (IZ) (Escherichia coli [3])
CCCCCCCCCCCCCCCC(O)(P(=O)(O)O)P(=O)(O)O	0 mm	–	–
O=P(O)(O)C(O)(Cc1cccnc1)P(=O)(O)O [RISEDRONIC ACID]	0 mm	–	–
O=P(O)(O)C(Nc1cccnc1)P(=O)(O)O	0 mm	–	–
CC(C)(C)c1cccc(NC(P(=O)(O)O)P(=O)(O)O)c1	7 mm	0 mm	7 mm
CC(NC(P(=O)(O)O)P(=O)(O)O)c1cccc2ccccc12 (stereo not given)	0 mm	0 mm	0 mm
O=P(O)(O)C(O)(CCc1cccnc1)P(=O)(O)O	0 mm	–	–
CN[C@@H]1[C@H](O[C@H]2[C@H](O[C@H]3[C@H](O)[C@@H](O)[C@H](N=C(N)N)[C@@H](O)[C@@H]3N=C(N)N)O[C@@H](C)[C@]2(O)C=O)O[C@@H](CO)[C@H](O)[C@H]1O [STREPTOMYCIN]	15 mm	7 mm	16 mm
O=P(O)(O)C(O)(Cc1ccccn1)P(=O)(O)O	0 mm	–	–
CO[C@@H]1[C@@H](OC(N)=O)[C@@H](O)[C@H](Oc2ccc3c(O)c(NC(=O)c4ccc(O)c(CC=C(C)C)c4)c(=O)oc3c2C)OC1(C)C [NOVOBIOCIN]	9 mm	15 mm	9 mm
CCCCCCCCCNC(P(=O)(O)O)P(=O)(O)O [(NONYLAMINO)METHYLENEDIPHOSPHONIC ACID]	0 mm	–	–
CCCCCCC(O)(P(=O)(O)O)P(=O)(O)O	0 mm	–	–
O=P(O)(O)C(Nc1ccc2c(c1)CCC2)P(=O)(O)O	0 mm	–	–
O=P(O)(O)Cc1cccc(CP(=O)(O)O)c1	0 mm	–	–
CCCCCCCCc1ccc(C(O)(P(=O)(O)O)P(=O)(O)O)cc1	0 mm	0 mm	0 mm
CC1CCCC(C)N1C(P(=O)(O)O)P(=O)(O)O (stereo not given)	0 mm	–	–
CCCCCCCCC(O)(P(=O)(O)O)P(=O)(O)O	9 mm	0 mm	7 mm
O=P(O)(O)CC(c1ccccn1)P(=O)(O)O (stereo not given)	0 mm	0 mm	0 mm
O=P(O)(O)C(O)(Cc1cccc(C(F)(F)F)c1)P(=O)(O)O	7 mm	0 mm	7 mm
CCc1ccc(NC(P(=O)(O)O)P(=O)(O)O)cc1	0 mm	–	–
CC(C)c1cccc(NC(P(=O)(O)O)P(=O)(O)O)c1	8 mm	0 mm	9 mm
O=P(O)(O)C(CNc1cccnc1)P(=O)(O)O	0 mm	–	–

— ChEMBL document CHEMBL1138862 (J Med Chem, 2006)
